Source: US6288119A, “11,15-O-dialkylprostaglandin E derivatives, process for producing the same, and drugs containing the same as the active ingredient” (Ono Pharmaceuticals Co., Ltd., priority 1997, dated 2001)

Key:
mouse EP4 = molecular target: T1, mouse EP4 (Mus musculus, UniProt P32240); assay: Binding assay using expression cell of prostanoids receptor subtype, EP4 ([3H]-PGE2 binding inhibition, CHO membrane fraction); conditions: 2.5 nM [3H]-PGE2, 1 hour at room temperature, pH 6.0, read-out: Dissociation Constant Ki, EP4
T1 construct: expressed in transfected cells; host or cells: CHO cells
Description: (§1) (i) Binding assay using expression cell of prostanoids receptor subtype
(§2) The preparation of membrane fraction was carried out according to the method of Sugimoto et al. [J. Biol. Chem., 267, 6463-6466 (1992)], using expression CHO cell of the prostanoids receptor subtype (mouse EP1, EP2, EP3α, EP4).
(§3) The standard assay mixture containing membrane fraction (0.5 mg/ml), and [3H]-PGE2 in a final volume of 200 μl was incubated for 1 hour at room temperature. The reaction was terminated by addition of 3 ml of ice-cooled buffer. The mixture was filtered through a GF/B glass filter under reduced pressure. The radioactivity associated with the filter was measured by liquid scintillation counting.
(§4) Kd and Bmax values were determined from Scatchard plots [Ann. N.Y. Acad. Sci., 51, 660 (1949)]. Non-specific binding was calculated as the binding in the presence of an excess (2.5 μM) of unlabeled PGE2. In the measurement of 3H-PGE2 binding inhibitory activity, 2.5 nM of [3H]-PGE2 and various concentrations of the compounds of the present invention were added. The following buffer was used in all reactions.
(§5) Buffer; 10 mM potassium phosphate (pH 6.0), 1 mM EDTA, 10 mM MgCl2, 0.1 M NaCl.
(§6) The dissociation constant Ki (μM) of each compound was calculated by the following equation.

mouse EP2 = molecular target: T2, mouse EP2 (Mus musculus, UniProt Q62053); assay: Binding assay using expression cell of prostanoids receptor subtype, EP2 ([3H]-PGE2 binding inhibition, CHO membrane fraction); conditions: 2.5 nM [3H]-PGE2, 1 hour at room temperature, pH 6.0, read-out: Dissociation Constant Ki, EP2
T2 construct: expressed in transfected cells; host or cells: CHO cells
Description: as §1, §2, §3, §4, §5, §6

mouse EP1 = molecular target: T3, mouse EP1 (Mus musculus, UniProt P35375); assay: Binding assay using expression cell of prostanoids receptor subtype, EP1 ([3H]-PGE2 binding inhibition, CHO membrane fraction); conditions: 2.5 nM [3H]-PGE2, 1 hour at room temperature, pH 6.0, read-out: Dissociation Constant Ki, EP1
T3 construct: expressed in transfected cells; host or cells: CHO cells
T3 sequence (P35375 1-405): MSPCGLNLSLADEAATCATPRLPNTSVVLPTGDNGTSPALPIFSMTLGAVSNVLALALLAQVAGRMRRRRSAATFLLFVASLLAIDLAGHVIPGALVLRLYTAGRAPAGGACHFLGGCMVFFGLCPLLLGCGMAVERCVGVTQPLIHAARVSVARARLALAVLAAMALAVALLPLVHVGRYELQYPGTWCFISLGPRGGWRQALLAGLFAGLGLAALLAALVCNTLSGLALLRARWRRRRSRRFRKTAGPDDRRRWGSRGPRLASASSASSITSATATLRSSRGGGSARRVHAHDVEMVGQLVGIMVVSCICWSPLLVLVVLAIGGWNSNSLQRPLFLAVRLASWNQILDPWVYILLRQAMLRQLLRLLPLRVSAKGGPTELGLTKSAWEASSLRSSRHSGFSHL
Description: as §1, §2, §3, §4, §5, §6

mouse EP3α = molecular target: T4, mouse EP3α (Mus musculus, UniProt P30557); assay: Binding assay using expression cell of prostanoids receptor subtype, EP3α ([3H]-PGE2 binding inhibition, CHO membrane fraction); conditions: 2.5 nM [3H]-PGE2, 1 hour at room temperature, pH 6.0, read-out: Dissociation Constant Ki, EP3α
T4 construct: expressed in transfected cells; host or cells: CHO cells
T4 sequence (P30557 1-365): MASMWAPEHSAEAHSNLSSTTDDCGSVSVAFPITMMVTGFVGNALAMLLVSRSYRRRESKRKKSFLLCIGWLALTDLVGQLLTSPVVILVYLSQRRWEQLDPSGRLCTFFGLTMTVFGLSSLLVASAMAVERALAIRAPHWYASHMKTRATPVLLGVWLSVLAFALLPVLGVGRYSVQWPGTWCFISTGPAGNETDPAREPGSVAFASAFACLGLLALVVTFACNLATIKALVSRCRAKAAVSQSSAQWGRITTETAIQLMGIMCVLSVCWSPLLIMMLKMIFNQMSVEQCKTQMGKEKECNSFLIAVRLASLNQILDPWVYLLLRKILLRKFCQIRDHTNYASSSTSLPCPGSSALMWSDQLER
Description: as §1, §2, §3, §4, §5, §6

T2 sequence (Q62053 whole entry): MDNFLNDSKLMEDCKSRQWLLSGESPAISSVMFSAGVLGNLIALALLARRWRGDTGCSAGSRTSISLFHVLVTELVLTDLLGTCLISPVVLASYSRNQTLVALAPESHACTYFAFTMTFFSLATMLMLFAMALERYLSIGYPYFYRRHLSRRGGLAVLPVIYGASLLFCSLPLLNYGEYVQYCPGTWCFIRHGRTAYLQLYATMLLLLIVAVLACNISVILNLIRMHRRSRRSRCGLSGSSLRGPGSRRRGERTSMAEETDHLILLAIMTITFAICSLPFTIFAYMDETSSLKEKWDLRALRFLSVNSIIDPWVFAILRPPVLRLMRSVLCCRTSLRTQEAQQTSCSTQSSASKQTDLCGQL
T1 sequence (P32240 whole entry): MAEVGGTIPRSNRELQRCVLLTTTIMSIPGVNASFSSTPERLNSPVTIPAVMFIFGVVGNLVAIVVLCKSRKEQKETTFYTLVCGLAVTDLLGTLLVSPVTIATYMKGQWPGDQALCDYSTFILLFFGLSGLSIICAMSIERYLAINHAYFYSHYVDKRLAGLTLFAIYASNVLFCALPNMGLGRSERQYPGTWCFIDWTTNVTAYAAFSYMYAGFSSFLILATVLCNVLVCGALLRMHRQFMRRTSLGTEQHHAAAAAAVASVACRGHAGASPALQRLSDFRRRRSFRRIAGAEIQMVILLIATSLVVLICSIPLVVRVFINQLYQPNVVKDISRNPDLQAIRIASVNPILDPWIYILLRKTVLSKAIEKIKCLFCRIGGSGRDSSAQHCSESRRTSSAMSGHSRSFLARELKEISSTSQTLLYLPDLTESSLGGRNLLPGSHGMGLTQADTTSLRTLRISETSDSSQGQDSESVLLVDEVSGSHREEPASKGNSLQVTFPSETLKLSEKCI

**Q.** Which results are given for `CCCCC[C@@H](/C=C/[C@H]1[C@H](OC)CC(=O)[C@@H]1CCCCCCC(=O)O)OC` [1(a), 11α,15α-Dimethoxy-9-oxoprosta-13E-enoic acid]?
**A.** Ki (mouse EP4): 1300 nM; Ki (mouse EP2): 1100 nM; Ki (mouse EP1): > 10000 nM; Ki (mouse EP3α): 6.3 nM

**Q.** How did the Ki (mouse EP4) turn out when `CCCCC(C)(C)[C@@H](/C=C/[C@H]1[C@H](OC)CC(=O)[C@@H]1C/C=C\CCCC(=O)O)OC` [1(b), 11α,15α-Dimethoxy-9-oxo-16,16-dimethylprosta-5Z,13E-dienoic acid] was run?
**A.** The Ki was 2500 nM.

**Q.** What about the Ki (mouse EP2) of the same molecule?
**A.** The Ki was 530 nM.

**Q.** And the Ki (mouse EP1)?
**A.** Its Ki is 970 nM.

**Q.** And the Ki (mouse EP3α)?
**A.** Its Ki is 2.7 nM.

**Q.** What does the source list for `CCCCCC[C@@H](/C=C/[C@H]1[C@H](OC)CC(=O)[C@@H]1C/C=C\CCCC(=O)O)OC` [1(e), 11α,15α-Dimethoxy-9-oxo-20-methylprosta-5Z,13E-dienoic acid]?
**A.** Ki (mouse EP4): 3700 nM; Ki (mouse EP2): 1300 nM; Ki (mouse EP1): 2400 nM; Ki (mouse EP3α): 6.1 nM

**Q.** `COC(/C=C/[C@H]1[C@H](OC)CC(=O)[C@@H]1C/C=C\CCCC(=O)O)COc1ccccc1` (stereo partly drawn) [1(f), 11α,15α-Dimethoxy-9-oxo-16-phenoxy-17,18,19,20-tetranorprosta-5Z,13E-dienoic acid] was tested. Which Ki (mouse EP4) did it give?
**A.** Its Ki is greater than 10000 nM.

**Q.** What about the Ki (mouse EP2) of the same molecule?
**A.** The Ki was greater than 10000 nM.

**Q.** And the Ki (mouse EP1)?
**A.** The Ki was 310 nM.

**Q.** And the Ki (mouse EP3α)?
**A.** Its Ki is 2.9 nM.

**Q.** With `CCCCC[C@@H](/C=C/[C@@H]1[C@@H](C/C=C\CCCC(=O)O)[C@H](Cl)C[C@H]1OC)OC` [1(h), 11α,15α-Dimethoxy-9β-chloroprosta-5Z,13E-dienoic acid] as the molecule, how does the Ki (mouse EP4) read?
**A.** The Ki was 73 nM.

**Q.** And the Ki (mouse EP2)?
**A.** Its Ki is 34 nM.

**Q.** And the Ki (mouse EP1)?
**A.** Its Ki is 39 nM.

**Q.** What about the Ki (mouse EP3α) of the same molecule?
**A.** The Ki was 1.7 nM.

**Q.** What does the source list for `CCCCC[C@@H](/C=C/[C@H]1[C@H](OC)CC(=O)[C@@H]1C/C=C\CCCC(=O)O)OC` [Example 1, 11α,15α-Dimethoxy-9-oxoprosta-5Z,13E-dienoic acid]?
**A.** Ki (mouse EP4): 4200 nM; Ki (mouse EP2): 2400 nM; Ki (mouse EP1): > 10000 nM; Ki (mouse EP3α): 3.6 nM

**Q.** Which Ki (mouse EP4) does the source give for `CCCCC[C@@H](/C=C/[C@H]1[C@H](OCC)CC(=O)[C@@H]1C/C=C\CCCC(=O)O)OCC` [Example 2, 11α,15α-Diethoxy-9-oxoprosta-5Z,13E -dienoic acid] here?
**A.** The Ki was 5900 nM.

**Q.** And the Ki (mouse EP2)?
**A.** The Ki was 600 nM.

**Q.** What about the Ki (mouse EP1) of the same molecule?
**A.** The Ki was greater than 10000 nM.

**Q.** And the Ki (mouse EP3α)?
**A.** Its Ki is 40 nM.
